Reference: patent US20250034079A1, “PROCESS FOR RECOVERING AMINOBENZOIC ACID FROM AN AQUEOUS MOTHER LIQUOR” (Covestro Deutschland AG, priority 2021, published 2025)
Values after ≈ are worked out from the molar mass of the structure shown.

What was measured:
[1] = physchem; conditions: for solubility: water; for Solubility in water at RT: solubility of the extractant
Description: (§1) The remaining mother liquor was extracted in one stage with various solvents (step (C)). […] The extraction was conducted at 30° C. The experiments were assessed by ascertaining the partition coefficients K (=ratio of the ortho-aminobenzoic acid [oAB] concentration in g/L in the organic phase [ORG=first alcoholic phase] to the aqueous phase [AQ=first aqueous phase]), the solubilities of the extractant in the aqueous phase after the extraction (=first aqueous phase) and—in four cases—the proportion by mass of organic secondary components (SC) in the organic extract phase (=first alcoholic phase) based on the totality of the organic secondary components in the two phases (=m(SC)ORG/m(SC)TOT). For this purpose, a separation was conducted by HPLC; organic impurities that elute earlier than ortho-aminobenzoic acid are referred to collectively as polar secondary components, and organic impurities that elute later than ortho-aminobenzoic acid as nonpolar secondary components.

[2] = One-stage extraction of ortho-aminobenzoic acid from crystallization mother liquor with various extractants (partition coefficient); conditions: pH 3.5±0.2, 8.7 g/L oAB, phase ratio organic to aqueous 0.5, 30° C.
Description: For the evaluation of the distribution of a component between two phases, the two phases were analyzed by HPLC-MS (with identical sample preparation and method). The coefficients of distribution were then determined as the ratio of peak areas for the same retention time.
as §1

| Structure (SMILES) | Solubility in water at RT [1] | solubility [1] [µg/mL] | further results |
| --- | --- | --- | --- |
| CCCCCCCCCCO [1-Decanol] | – | 40 (≈ 253 µM) | – |
| CCC(C)=O [2-Butanone] | – | – | K = c(oAB)ORG/c(oAB)AQ (partition coefficient of ortho-aminobenzoic acid, organic to aqueous phase) [2]: 26.12 |
| CCCCOC(C)=O [Butyl acetate] | – | ~6000 | – |

Continued, in another order:

| Solubility in water at RT [1] | Structure (SMILES) | solubility [1] [µg/mL] | further results |
| --- | --- | --- | --- |
| insoluble | CC1CCCC1 [Methylcyclopentane] | – | – |
| insoluble | CCCCCCCC/C=C\CCCCCCCCO [Oleyl alcohol] | – | – |
